This passage reports MTD, EC50 and Ki results from patent US20230321042A1, “COMBINATION THERAPY” (PFIZER INC., priority 2020, published 2023).

SMILES strings stand for the structures. Bounds are passed on as bounds.

A short description of data set [1]: In vivo study in MCF-7 breast cancer xenograft. To be noted: female, mouse, po, BID, MCF7 xenograft model, NSG mice, read-out: maximum tolerated dose level. As to the method:
The MCF7 model was established by implanting passage 0 tumor fragments into recipient mice. To establish the MCF7 donor mice, tumor cells (5 × 10^6 cells/mouse with 50% Cultrex® Basement Membrane Matrix) were subcutaneously implanted in female NSG mice. Once reaching a range of 700 to 800 mm^3, donor tumors were subsequently transplanted into secondary recipient mice for study expansion. […] TGI was assessed on Day 21 post first dose (or Day 42 post tumor fragment implant). […] In the 150 mpk combination group, 50% of mice were found dead or were euthanized by the end of 21 days due to severe anemia.

Data set [2] has as its system T47D. Nature of the data set: 7-day anti-proliferation assay (CyQuant Direct) in T47D. Format: cell-based. To be noted: Homo sapiens, 168 h. As to the method: (§1) Functional effects of test compounds were measured in a 7-day anti-proliferation assay in three ER+ breast cancer cell lines. Cells were seeded in 96-well plates and allowed to adhere overnight prior to compound treatment.

Data set [3] relates to MCF7. Nature of the data set: 7-day anti-proliferation assay (CyQuant Direct) in MCF7. Format: cell-based. To be noted: Homo sapiens, 168 h; MCF7, 7-day. As to the method: as §1
Data set [4] deals with HCC1428. Nature of the data set: 7-day anti-proliferation assay (CyQuant Direct) in HCC1428. Format: cell-based. To be noted: Homo sapiens, 168 h; HCC1428, 7-day. As to the method:
as §1

For data set [5], the target named is CDK6/Cyclin D3 (Homo sapiens (Human), UniProt Q00534). Description: CDK6/Cyclin D3 mobility shift assay. Format: biochemical. To be noted: 3.5 mM ATP. On the procedure:
The mobility shift assay electrophoretically separates the fluorescently labelled peptides (substrate and phosphorylated product) following the kinase reaction. […] Typical reaction solutions contained 2% DMSO (± inhibitor), 2% glycerol, 10 mM MgCl2, 1 mM DTT, 3.5 mM ATP, 0.005% Tween 20 (TW-20), 3 µM 5-FAM-Dyrktide, 4 nM (active sites) activated CDK6/Cyclin D3 in 40 mM HEPES buffer at pH 7.5.
The reaction was stopped after 95 minutes by the addition of 50 µL of 30 mM EDTA. Ki determinations were made from a plot of the fractional velocity as a function of inhibitor concentration fit to the Morrison equation with the enzyme concentration as a variable.

Data set [6] concerns the target CDK4/Cyclin D1 (Homo sapiens (Human), UniProt P11802). Nature of the data set: CDK4/Cyclin D1 mobility shift assay. Format: biochemical. The following applies: 3.5 mM ATP.
Method: The purpose CDK4/Cyclin D1 assay is to evaluate the inhibition (% inhibition, Kiapp and Ki values) in the presence of small molecule inhibitors by using a fluorescence based microfluidic mobility shift assay. […] The mobility shift assay electrophoretically separates the fluorescently labelled peptides (substrate and phosphorylated product) following the kinase reaction. Both substrate and product are measured and the ratio of these values is used to generate % conversion of substrate to product by the LabChip EZ Reader. […] The reaction was stopped after 195 minutes by the addition of 50 µL of 30 mM EDTA. Ki determinations were made from a plot of the fractional velocity as a function of inhibitor concentration fit to the Morrison equation with the enzyme concentration as a variable.

CDK6/Cyclin D3, sequence (Q00534 whole entry): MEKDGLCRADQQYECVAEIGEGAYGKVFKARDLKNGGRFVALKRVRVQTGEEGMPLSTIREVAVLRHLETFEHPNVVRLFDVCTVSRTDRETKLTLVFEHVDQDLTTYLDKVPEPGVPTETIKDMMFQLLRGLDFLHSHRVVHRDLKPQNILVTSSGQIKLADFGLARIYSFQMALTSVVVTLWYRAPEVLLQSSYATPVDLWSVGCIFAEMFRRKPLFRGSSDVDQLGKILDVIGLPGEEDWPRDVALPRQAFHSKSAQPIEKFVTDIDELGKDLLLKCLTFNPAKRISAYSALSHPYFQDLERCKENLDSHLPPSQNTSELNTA
CDK6/Cyclin D3, sequence (P30281 whole entry partner): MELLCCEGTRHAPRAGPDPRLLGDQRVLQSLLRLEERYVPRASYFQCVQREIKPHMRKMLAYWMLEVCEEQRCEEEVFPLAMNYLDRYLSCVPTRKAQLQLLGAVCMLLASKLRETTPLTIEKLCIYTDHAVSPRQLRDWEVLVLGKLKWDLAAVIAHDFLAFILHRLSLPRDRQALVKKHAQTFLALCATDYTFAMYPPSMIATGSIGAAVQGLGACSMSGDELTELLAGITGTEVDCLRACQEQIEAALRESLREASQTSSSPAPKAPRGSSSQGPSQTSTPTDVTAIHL
CDK4/Cyclin D1, sequence (P11802 whole entry): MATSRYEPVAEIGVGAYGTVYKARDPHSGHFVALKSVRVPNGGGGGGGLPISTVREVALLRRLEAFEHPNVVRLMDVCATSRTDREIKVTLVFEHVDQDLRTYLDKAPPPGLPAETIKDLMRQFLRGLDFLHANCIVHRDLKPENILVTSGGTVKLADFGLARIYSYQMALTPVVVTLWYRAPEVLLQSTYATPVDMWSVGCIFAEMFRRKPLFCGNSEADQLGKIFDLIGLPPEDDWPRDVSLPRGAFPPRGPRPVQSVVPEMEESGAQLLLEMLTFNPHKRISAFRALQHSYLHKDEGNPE
CDK4/Cyclin D1, sequence (P24385 whole entry partner): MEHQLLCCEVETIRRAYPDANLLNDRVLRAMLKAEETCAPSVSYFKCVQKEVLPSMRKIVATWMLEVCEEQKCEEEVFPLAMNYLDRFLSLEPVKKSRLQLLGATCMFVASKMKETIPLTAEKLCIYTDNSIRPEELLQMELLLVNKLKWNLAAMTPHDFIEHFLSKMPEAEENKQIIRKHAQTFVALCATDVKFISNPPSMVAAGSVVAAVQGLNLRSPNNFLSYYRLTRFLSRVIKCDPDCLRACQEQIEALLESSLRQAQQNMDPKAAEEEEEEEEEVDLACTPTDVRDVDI

The term EC50 denotes the concentration at which the effect is half-maximal. Lower therefore signals a more potent agent. In general, Ki refers to the dissociation constant of the complex between target and ligand, obtained from inhibition or displacement. In the case of `COCc1cc(C(=O)Nc2cc([C@H]3CC[C@@H](OC(=O)NC(C)C)C3)[nH]n2)n(C)n1` [COMPOUND A, (1R,3S)-3-[3-({[3-(methoxymethyl)-1-methyl-1H-pyrazol-5-yl]carbonyl}amino)-1H-pyrazol-5-yl]cyclopentyl propan-2-ylcarbamate], the MTD at 21 days in data set [1] was 150 mg/kg. Also, the EC50 was 403 nM in data set [2], 386 nM in data set [3] and greater than 1000 nM in data set [4]. Moreover, the Ki in data set [5] amounted to 465 nM.
On to `CC[C@H](C)NC(=O)O[C@@H]1CC[C@H](c2cc(NC(=O)Cc3ccccc3S(C)(=O)=O)n[nH]2)C1` [COMPOUND B, (1R,3S)-3-[3-({[2-(methylsulfonyl)phenyl]acetyl}amino)-1H-pyrazol-5-yl]cyclopentyl (2S)-butan-2-ylcarbamate], for which the EC50 in data set [2] worked out at 220 nM; in data set [3] it was 190 nM; in data set [4] it was 790 nM. Besides, the Ki in data set [6] stood at 107 nM; in data set [5] it was 254 nM.
As for `CCCNC(=O)O[C@@H]1CC[C@H](c2cc(NC(=O)Cc3ccnc(OC)c3)n[nH]2)C1` [COMPOUND C, (1R,3S)-3-(3-{[(2-methoxypyridin-4-yl)acetyl]amino}-1H-pyrazol-5-yl)cyclopentyl propylcarbamate], the EC50 in data set [2] was 443 nM; in data set [3], 336 nM; in data set [4], 710 nM. The Ki in data set [6] worked out at 149 nM; in data set [5], 215 nM.
With `CC(=O)c1c(C)c2cnc(Nc3ccc(N4CCNCC4)cn3)nc2n(C2CCCC2)c1=O` [Palbociclib, 6-acetyl-8-cyclopentyl-5-methyl-2-(5-piperazin-1-yl-pyridin-2-ylamino)-8H-pyrido[2,3-d]pyrimidin-7-one, reference compound], the EC50 in data set [2] stood at 87 nM; in data set [3], 79 nM; in data set [4] it was 355 nM.
